Test results reported in patent publication US5773459A, “Urea- and thiourea-type compounds” (Sugen, Inc., priority 1995, dated 1998).
Where two headings read alike, the source gives them in different places.

Experiments:
[1] = test system: chimeric receptor containing the EGFR extracellular domain and the HER2 intracellular kinase domain; assay: EGFR-HER2 chimeric receptor assay, HER2 kinase activity in whole NIH3T3 cells; type: cell-based; conditions: NIH3T3 cells with EGFR-HER2 chimera, EGF stimulated; read-out: ELISA DATA: HER2 - (3T3)
From the text: (§1) The following examples illustrate the ability of the exemplary compounds to inhibit receptor tyrosine kinases, such as HER2 and/or EGFR. The following target cells were used for cellular kinase assays: NIH3T3 clone C7 (Honegger et al., supra) engineered to over-express human EGF receptor; NIH3T3 cells engineered to over-express a chimeric receptor containing the EGFR extracellular domain and the HER2 intracellular kinase domain; the human mammary carcinoma line BT474 (ATCC HTB2) expressing HER2; and the human glioblastoma line U1242 that expresses PDGFR-beta. Growth assays were carried out using human mammary epithelial SKBR3 (ATCC HTB30) cells (SKBR3 cells over-express HER2), SKOV3 (ATCC HTB77) human ovarian cancer cell line (SKOV3 cells also over-express HER2), A431 cells (A431 cells over-express EGFR) MCF7 human breast carcinoma cells, MCF7 cells overexpressing the HER2 kinase (MCF7-HER2), NIH3T3 cells, and NIH3T3 cells overexpressing the HER2 kinase (3T3-HER2.
EGFR-HER2 Chimeric Recetor
HER2 kinase activity (EGFR-3T3) in whole cells was measured as described below:
The materials and regeants are identical to these used in example 1, the EGFR whole cell kinase assay.
A. Coat ELISA plates (Corning, 96 well, Cat. #25805-96) with 05-101 antibody at 0.5 μg per well in PBS, 100 μl final volume/well, and store overnight at 4.sunburst.C. Coated plates are good for up to 10 days when stored at 4° C.
B. On day of use, remove coating buffer and replace with 100 μl blocking buffer (5% Carnation Instant Non-Fat Dry Milk in PBS). Incubate the plate, shaking, at room temperature (about 23.sunburst.C to 25.sunburst.C) for 30 minutes. Just prior to use, remove blocking buffer and wash plate 4 times with TBST buffer.
A. An NIH3T3 cell line overexpressing a chimeric receptor containing the EGFR extracellular domain and […] can be used for this assay.
B. Choose dishes having 80-90% confluence for the experiment. Trypsinize cells and stop reaction by adding 10% fetal bovine serum. Suspend cells in DMEM medium (10% CS DMEM medium) and centrifuge once at 1500 rpm, at room temperature for 5 minutes.
C. Resuspend cells in seeding medium (DMEM, 0.5% bovine serum) , and count the cells using trypan blue. Viability above 90% is acceptable. Seed cells in DMEM medium (0.5% bovine serum) at a density of 10,000 cells per well, 100 μl per well, in a 96 well microtiter plate. Incubate seeded cells in 5% CO2 at 37.sunburst.C for about 40 hours.
A. Check seeded cells for contamination using an inverted microscope. Dilute drug stock (10 mg/ml in DMSO) 1:10 in DMEM medium, then transfer 5 l to a […] well for a final drug dilution of 1:200 and a final DMSO concentration of 1%. Control wells receive DMSO alone. Incubate in 5% CO2 at 37° C. for two hours. […]

[2] = test system: NIH3T3 cells overexpressing the HER2 kinase (3T3-HER2); assay: 3T3 Growth Assay (HER2-overexpressing 3T3 cells, SRB); type: cell-based; conditions: Mus musculus
From the text: as §1
The 3T3 growth assay was carried out as follows: […]
(1) HER2C7 (engineered to express HER2) and NIH3T3C7 (as the control) cells are used for this assay. […] Cells are incubated at 37° C., 5% CO2 overnight to allow for cell attachment to the plate;
(2) The […] compound is added to the cells at day 2. […] A total of 100 μl/well medium of the diluted compounds is added into the cells. The total volume of each well is 200 μl. Quadruplicates (wells) and 11 concentration points are applied to each compound tested.
(3) After the cells are treated with the compound for 4 days, the cells are washed with PBS and fixed with 200 μl/well ice-cold 10% TCA for one hour at 0°-5° C. condition.
(4) Remove TCA and rinse wells 5 times with deionized water. Dry plates upside down with paper towels. Stain cells with 0.4% SRB at 100 μl well for 10 minutes.
(5) Pour off SRB and rinse plate 5 times with 1% acetic acid. Dry plate completely.
(6) Solubilize the dye with 10 mM Tris-base at 100 μl/well for 10 minutes on a shaker.
(7) Read the plate at dual wavelengths at 570 nm and 630 nm on Dynatech Elisa plate reader.

[3] = read-out: GROWTH DATA: 3T3/HER2 2% FBS
[4] = read-out: GROWTH DATA: 3T3/HER2 10% FBS

IC50 [1] | Compound | IC50 [2, 3] | IC50 [2, 4]
10.3 µM | CC(C)S(=O)(=O)c1csc(NC(=O)Nc2ccc(C(C)(C)C)cc2)c1Cl [Example Z1, N-[3-Chloro-4-(isopropylsulfonyl)thien-2-yl]-N'-(4-t-butylphenyl)urea] | 1 µM | 15 µM
31.7 µM | CC(C)S(=O)(=O)c1csc(NC(=O)Nc2cc(C(F)(F)F)cc(C(F)(F)F)c2)c1Cl [Example Z2, N-[3-Chloro-4-(isopropylsulfonyl)thien-2-yl]-N'-(3,5-di-trifluoromethylphenyl)urea] | 0.6 µM | 18 µM
> 100 µM | N#Cc1ccc(NC(=S)Nc2ccc(S(=O)(=O)N3CCCCC3)cc2)cc1 [Example Z4, N-(4-Cyanophenyl)-N'-[4-[(piperid-1-yl)sulfonyl]phenyl]thiourea] | – | –

Compound | IC50 [1] | IC50 [2, 3] | IC50 [2, 4]
O=C(Nc1ccc(SC(F)(F)F)cc1)Nc1ccc(Oc2ccc(Cl)cc2Cl)nc1 [Example Z3] | > 100 µM | 0.35 µM | 18 µM
